Experimental data taken from patent publication US20230083012A1, “DIHYDROPYRIMIDINE DERIVATIVES AND USES THEREOF IN THE TREATMENT OF HBV INFECTION OR OF HBV-INDUCED DISEASES” (priority 2019, published 2023).

Columns and labels:
[1] = Cytotoxicity determination in HepG2.2.15 cells (CCK-8 cell viability); format: cell-based; conditions: human, 6 days treatment, CCK-8 assay, highest concentration 100 uM
In short: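 HepG2.2.15 cells seeded at 5,000 cells/well in 2% FBS medium, exposed 6 days to compounds (8-point 1:3 dilutions from 100 uM, triplicate), refreshed at day 3. Viability read by CCK-8 after 2.5 h at 37° C, absorbance 450 nm with 630 nm reference; CC50 calculated.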

[2] = system: HBV; experiment: Anti-HBV activity in HepG2.2.15 cells (HBV DNA in culture medium by qPCR); format: cell-based; conditions: Hepatitis B virus, HepG2.2.15, 144 h, HepG2.2.15 cells, 6 days treatment, HBV DNA in culture medium quantified by real-time PCR; read-out: EC50
In short: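 HepG2.2.15 cells in 2% FBS medium at 37 °C were treated with compounds for 6 days, with medium and compound refreshed at day 3; 1:3 dilutions, 8 concentrations in triplicate, top 10 or 1 uM. HBV DNA in culture medium quantified by qPCR to derive EC50; CC50 from parallel plates (top 100 uM).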

| SMILES | CC50 at 6 days [1] [nM] | EC50 [2] [nM] |
| --- | --- | --- |
| COC(=O)C1=C(CN2CC(F)(F)[C@H]3[C@@H]2CN(C(C)=O)N3CCC(C)(C)C(=O)O)NC(c2nccs2)=N[C@H]1c1ccc(F)c(F)c1C (single isomer, unassigned) [Compound 82B, 4-((cis)-2-acetyl-4-((6-(3,4-difluoro-2-methylphenyl)-5-(methoxycarbonyl)-2-(thiazol-2-yl)-3,6-dihydropyrimidin-4-yl)methyl)-6,6-difluorohexahydropyrrolo[3,2-c]pyrazol-1(2H)-yl)-2,2-dimethylbutanoic acid] | 46900 | 37 |
| CCOC(=O)C1=C(CN2CC(F)(F)[C@@H]3[C@H]2CN(C(C)=O)N3CCC(C)(C)C(=O)O)NC(c2nccs2)=N[C@H]1c1ccc(F)c(F)c1F (single isomer, unassigned) [Compound 83A, 4-((cis)-2-acetyl-4-((5-(ethoxycarbonyl)-2-(thiazol-2-yl)-6-(2,3,4-trifluorophenyl)-3,6-dihydropyrimidin-4-yl)methyl)-6,6-difluorohexahydropyrrolo[3,2-c]pyrazol-1(2H)-yl)-2,2-dimethylbutanoic acid] | 73500 | 46 |
| CCOC(=O)C1=C(CN2CC(F)(F)[C@H]3[C@@H]2CN(C(C)=O)N3CCC(C)(C)C(=O)O)NC(c2nccs2)=N[C@H]1c1ccc(F)c(F)c1F (single isomer, unassigned) [Compound 83B, 4-((cis)-2-acetyl-4-((5-(ethoxycarbonyl)-2-(thiazol-2-yl)-6-(2,3,4-trifluorophenyl)-3,6-dihydropyrimidin-4-yl)methyl)-6,6-difluorohexahydropyrrolo[3,2-c]pyrazol-1(2H)-yl)-2,2-dimethylbutanoic acid] | 39000 | 35 |
| COC(=O)C1=C(CN2CC(F)(F)[C@@H]3[C@H]2CN(C(C)=O)N3CCC(C)(C)C(=O)O)NC(c2nccs2)=N[C@H]1c1cccc(F)c1Cl (single isomer, unassigned) [Compound 84A] | > 100000 | 52 |
| CCOC(=O)C1=C(CN2CC(F)(F)[C@@H]3[C@H]2CN(C(=O)C2(F)CC2)N3CCC(C)(C)C(=O)O)NC(c2nccs2)=N[C@H]1c1cccc(F)c1C (single isomer, unassigned) [Compound 85] | 22600 | 69 |
| CCOC(=O)C1=C(CN2CC(F)(F)[C@@H]3[C@H]2CN(C=O)N3CCC(C)(C)C(=O)O)NC(c2nccs2)=N[C@H]1c1cccc(F)c1C (single isomer, unassigned) [Compound 86] | > 50000 | 130 |
| CCOC(=O)C1=C(CN2CC(F)(F)[C@H]3[C@@H]2C(=O)N(CC(C)(C)C(=O)O)N3C)NC(c2nccs2)=N[C@H]1c1cccc(F)c1C (single isomer, unassigned) [Compound 88] | 60000 | 1.5 |
| CCOC(=O)C1=C(CN2CC(F)(F)[C@@H]3[C@H]2CN(C(C)C)N3CCC(C)(C)C(=O)O)NC(c2nccs2)=N[C@H]1c1cccc(F)c1C (single isomer, unassigned) [Compound 89] | > 3120 | 60 |
| CCOC(=O)C1=C(CN2CC(F)(F)[C@@H]3[C@H]2CN(CC)N3CCC(C)(C)C(=O)O)NC(c2nccs2)=N[C@H]1c1cccc(F)c1C (single isomer, unassigned) [Compound 90] | 19200 | 20.5 |
| CCOC(=O)C1=C(CN2CC(F)(F)[C@@H]3[C@H]2CN(CC(F)F)N3CCC(C)(C)C(=O)O)NC(c2nccs2)=N[C@H]1c1cccc(F)c1C (single isomer, unassigned) [Compound 91] | 8800 | 71 |
| CCOC(=O)C1=C(CN2CC(F)(F)[C@@H]3[C@H]2CN(CC(F)(F)F)N3CCC(C)(C)C(=O)O)NC(c2nccs2)=N[C@H]1c1cccc(F)c1C (single isomer, unassigned) [Compound 92] | 5000 | 61 |
| CCOC(=O)C1=C(CN2CC(F)(F)[C@@H]3[C@H]2CN(C)N3CCC(C)(C)C(=O)O)NC(c2nccs2)=N[C@@H]1c1ccc(F)c(F)c1C (single isomer, unassigned) [Compound 93, 4-(4-((6-(3,4-difluoro-2-methylphenyl)-5-(ethoxycarbonyl)-2-(thiazol-2-yl)-3,6-dihydropyrimidin-4-yl)methyl)-6,6-difluoro-2-methylhexahydropyrrolo[3,2-c]pyrazol-1(2H)-yl)-2, ethylbutanoic acid] | 5400 | 12 |
| COC(=O)C1=C(CN2CC(F)(F)[C@@H]3[C@H]2CN(C)N3CCC(C)(C)C(=O)O)NC(c2nccs2)=N[C@H]1c1ccc(F)cc1Cl (single isomer, unassigned) [Compound 94] | 25000 | 14 |
| COC(=O)C1=C(CN2CC(F)(F)[C@@H]3[C@H]2CN(C)N3CCC(C)(C)C(=O)O)NC(c2nccs2)=N[C@H]1c1ccc(F)c(F)c1Cl (single isomer, unassigned) [Compound 95, 4-((cis)-4-((6-(2-Chloro-3,4-difluorophenyl)-5-(methoxycarbonyl)-2-(thiazol-2-yl)-3,6-dihydropyrimidin-4-yl)methyl)-6,6-difluoro-2-methylhexahydropyrrolo[3,2-c]pyrazol-1(2H)-yl)-2,2-dimethylbutanoic acid] | 8200 | 24 |
| CCOC(=O)C1=C(CN2CC(F)(F)[C@@H]3[C@H]2CN(C)N3CCC(C)(C)C(=O)O)NC(c2nccs2)=N[C@@H]1c1ccc(F)nc1C (single isomer, unassigned) [Compound 96] | > 100000 | 50 |
| CCOC(=O)C1=C(CN2CC(F)(F)[C@@H]3[C@H]2CN(C)N3CC(C)(C)C(=O)O)NC(c2nccs2)=N[C@@H]1c1ccc(F)nc1C (single isomer, unassigned) [Compound 97] | > 100000 | 77 |
| CCOC(=O)C1=C(CN2CC(F)(F)[C@@H]3[C@H]2CN(C)N3CC2CC(C)(C(=O)O)C2)NC(c2nccs2)=N[C@H]1c1cccc(F)c1C (single isomer, unassigned) [Compound 98] | > 6200 | 14 |
| CCOC(=O)C1=C(CN2CC(F)(F)[C@@H]3[C@H]2CN(C)N3CCOC(C)(C)C(=O)O)NC(c2nccs2)=N[C@H]1c1cccc(F)c1C (single isomer, unassigned) [Compound 99] | 25000 | 155 |
| [2H]C([2H])([2H])N1C[C@@H]2[C@H](N1CCC(C)(C)C(=O)O)C(F)(F)CN2CC1=C(C(=O)OCC)[C@H](c2cccc(F)c2C)N=C(c2nccs2)N1 (single isomer, unassigned) [Compound 100] | 12000 | 11 |
| COC(=O)C1=C(CN2CC(F)(F)[C@@H]3[C@H]2CN(C)N3CCC(C)(C)C(=O)O)NC(c2nccs2)=N[C@H]1c1ccc(F)c(F)c1C (single isomer, unassigned) [Compound 101, 4-((cis)-4-((6-(3,4-Difluoro-2-methylphenyl)-5-(methoxycarbonyl)-2-(thiazol-2-yl)-3,6-dihydropyrimidin-4-yl)methyl)-6,6-difluoro-2-methylhexahydropyrrolo[3,2-c]pyrazol-1(2H)-yl)-2,2-dimethylbutanoic acid] | > 3100 | 25 |
